# Data as given in patent US10696615B2, “Prenylated hydroxystilbenes” (The University of Sydney, priority 2011, dated 2020).
# Columns and labels:
# Type in all cases: cell-based, human
# MOLT-4 = test: NCI in vitro cancer screen, Leukemia; settings: MOLT-4
# ACHN = test: NCI in vitro cancer screen, Renal Cancer
# NCI-H522 = test: NCI in vitro cancer screen, Non-Small Cell Lung Cancer; settings: NCI-H522
# NCI-H460 = test: as above; settings: NCI-H460
# SK-MEL-2 = test: NCI in vitro cancer screen, Melanoma; settings: SK-MEL-2
# SK-MEL-28 = test: NCI in vitro cancer screen, Melanoma; settings: SK-MEL-28
# HOP-92 = test: NCI in vitro cancer screen, Non-Small Cell Lung Cancer; settings: HOP-92
# SK-OV-3 = test: NCI in vitro cancer screen, Ovarian Cancer; settings: SK-OV-3
# CCRF-CEM = test: NCI in vitro cancer screen, Leukemia
# MALME-3M = test: NCI in vitro cancer screen, Melanoma
# DU-145 = test: NCI in vitro cancer screen, Prostate Cancer; settings: DU-145
# OVCAR-8 = test: NCI in vitro cancer screen, Ovarian Cancer; settings: OVCAR-8
# M14 = test: NCI in vitro cancer screen, Melanoma; settings: M14
# SNB-19 = test: NCI in vitro cancer screen, CNS Cancer; settings: SNB-19
# SK-MEL-5 = test: NCI in vitro cancer screen, Melanoma; settings: SK-MEL-5
# LOX IMVI = test: NCI in vitro cancer screen, Melanoma
# COLO 205 = test: NCI in vitro cancer screen, Colon Cancer; settings: COLO 205
# OVCAR-5 = test: NCI in vitro cancer screen, Ovarian Cancer; settings: OVCAR-5
# HCC-2998 = test: NCI in vitro cancer screen, Colon Cancer; settings: HCC-2998
# PC-3 = test: NCI in vitro cancer screen, Prostate Cancer; settings: PC-3
# HCT-15 = test: NCI in vitro cancer screen, Colon Cancer; settings: HCT-15
# KM12 = test: NCI in vitro cancer screen, Colon Cancer; settings: KM12
# HCT-116 = test: NCI in vitro cancer screen, Colon Cancer; settings: HCT-116
# U251 = test: NCI in vitro cancer screen, CNS Cancer; settings: U251
# CAKI-1 = test: NCI in vitro cancer screen, Renal Cancer; settings: CAKI-1
# NCI-H23 = test: NCI in vitro cancer screen, Non-Small Cell Lung Cancer; settings: NCI-H23
# ADR-RES (NCI/ADR-RES) = test: NCI in vitro cancer screen, Ovarian Cancer
# [1] = test system: MDA-MB-231 (MDA-MB-231/ATCC); test: NCI in vitro cancer screen, Breast Cancer; settings: MDA-MB-231
# OVCAR-4 = test: NCI in vitro cancer screen, Ovarian Cancer; settings: OVCAR-4
# UACC-62 = test: NCI in vitro cancer screen, Melanoma; settings: UACC-62
# [2] = Homo sapiens, read-out: LC50 (the source's name)
compound,measurement,setting,value
"CC(C)=CCOc1cc(O)cc(/C=C/c2ccc(O)c(O)c2)c1 [USYDS4, (E)-3-(3-methyl-2-butenyloxy)-3′,4′,5-trihydroxystilbene]",GI50,MOLT-4; Homo sapiens,4.31 µM
same,CC50,MOLT-4; [2],> 100 µM
same,TGI,MOLT-4,21.6 µM
same,TGI,ACHN,>100 µM
same,GI50,ACHN; Homo sapiens,4.57 µM
same,CC50,ACHN; [2],> 100 µM
same,GI50,NCI-H522; Homo sapiens,1.07 µM
same,CC50,NCI-H522; [2],6.04 µM
same,TGI,NCI-H522,2.54 µM
same,GI50,NCI-H460; Homo sapiens,3.65 µM
same,CC50,NCI-H460; [2],> 100 µM
same,TGI,NCI-H460,20.3 µM
same,GI50,SK-MEL-2; Homo sapiens,2.18 µM
same,LC50,SK-MEL-2; Homo sapiens,31 µM
same,TGI,SK-MEL-2,6.57 µM
same,GI50,SK-MEL-28; Homo sapiens,9.18 µM
same,LC50,SK-MEL-28; Homo sapiens,77.9 µM
same,TGI,SK-MEL-28,27.6 µM
same,TGI,HOP-92,13.6 µM
same,GI50,HOP-92; Homo sapiens,1.92 µM
same,CC50,HOP-92; [2],62.3 µM
same,GI50,SK-OV-3; Homo sapiens,8.91 µM
same,CC50,SK-OV-3; [2],> 100 µM
same,TGI,SK-OV-3,57.0 µM
same,TGI,CCRF-CEM,>100 µM
same,GI50,CCRF-CEM; Homo sapiens,3.5 µM
same,CC50,CCRF-CEM; [2],> 100 µM
same,GI50,"MALME-3M; Homo sapiens, Malme-3M",7.25 µM
same,CC50,"MALME-3M; Homo sapiens, Malme-3M, read-out: LC50 (the source's name)",> 100 µM
same,TGI,MALME-3M; MALME-3M,30.6 µM
same,TGI,DU-145,44.6 µM
same,GI50,DU-145; Homo sapiens,6.37 µM
same,CC50,DU-145; [2],> 100 µM
same,GI50,OVCAR-8; Homo sapiens,4.94 µM
same,CC50,OVCAR-8; [2],> 100 µM
same,TGI,OVCAR-8,31.1 µM
same,GI50,M14; Homo sapiens,0.91 µM
same,CC50,M14; [2],46.3 µM
same,TGI,M14,15.4 µM
same,GI50,SNB-19; Homo sapiens,10.5 µM
same,CC50,SNB-19; [2],63.8 µM
same,TGI,SNB-19,25.8 µM
same,GI50,SK-MEL-5; Homo sapiens,1.42 µM
same,CC50,SK-MEL-5; [2],30 µM
same,TGI,SK-MEL-5,8.35 µM
same,TGI,LOX IMVI,19.3 µM
same,GI50,LOX IMVI; Homo sapiens,3.82 µM
same,CC50,LOX IMVI; [2],58.5 µM
same,TGI,COLO 205,23.0 µM
same,GI50,COLO 205; Homo sapiens,9.72 µM
same,CC50,COLO 205; [2],53.5 µM
same,GI50,OVCAR-5; Homo sapiens,15.9 µM
same,CC50,OVCAR-5; [2],> 100 µM
same,TGI,OVCAR-5,51.4 µM
same,TGI,HCC-2998,19.0 µM
same,GI50,HCC-2998; Homo sapiens,5.16 µM
same,CC50,HCC-2998; [2],53.4 µM
same,GI50,PC-3; Homo sapiens,4.47 µM
same,CC50,PC-3; [2],87.9 µM
same,TGI,PC-3,22.0 µM
same,TGI,HCT-15,34.9 µM
same,GI50,HCT-15; Homo sapiens,1.77 µM
same,CC50,HCT-15; [2],> 100 µM
same,GI50,KM12; Homo sapiens,3.27 µM
same,CC50,KM12; [2],46.5 µM
same,TGI,KM12,14.2 µM
same,TGI,HCT-116,16.0 µM
same,GI50,HCT-116; Homo sapiens,4.55 µM
same,LC50 (concentration killing 50% of cells),HCT-116; Homo sapiens,40.6 µM
same,GI50,"U251; Homo sapiens, U-251",3.67 µM
same,CC50,"U251; Homo sapiens, U-251, read-out: LC50 (the source's name)",45.5 µM
same,TGI,U251,15.6 µM
same,TGI,CAKI-1,>100 µM
same,GI50,CAKI-1; Homo sapiens,5.25 µM
same,CC50,CAKI-1; [2],> 100 µM
same,GI50,NCI-H23; Homo sapiens,3.42 µM
same,LC50,NCI-H23; Homo sapiens,81.9 µM
same,TGI,NCI-H23,20.8 µM
same,TGI,ADR-RES (NCI/ADR-RES); ADR-RES,48.3 µM
same,GI50,"ADR-RES (NCI/ADR-RES); Homo sapiens, NCI/ADR-RES",1.11 µM
same,CC50,"ADR-RES (NCI/ADR-RES); Homo sapiens, NCI/ADR-RES, read-out: LC50 (the source's name)",> 100 µM
same,GI50,[1]; Homo sapiens,1.04 µM
same,CC50,[1]; [2],> 100 µM
same,TGI,[1],18.4 µM
same,GI50,OVCAR-4; Homo sapiens,3.98 µM
same,CC50,OVCAR-4; [2],> 100 µM
same,TGI,OVCAR-4,50.4 µM
same,GI50,UACC-62; Homo sapiens,4.53 µM
same,CC50,UACC-62; [2],44.4 µM
same,TGI,UACC-62,16.8 µM
